Reference: patent US6811965B2, “Kidney perfusion solution containing nitric oxide donor, inhibitor of NOS2, glutathione, gluconate and methods of use” (priority 2000, dated 2004)

Key:
Porcine kidneys = assay: Pulsatile perfusion preservation of explanted porcine kidneys; conditions: GSNO 90 micromolar, L-NIL 694 micromolar
Procedure: GSNO and L-NIL dihydrate hydrochloride were purchased from Alexis Corporation (San Diego, Calif.). Solution A was prepared by weighing out 30 milligrams of GSNO powder and adding it to 1 milliliter of Belzer Machine Perfusion solution (Transmed, Elk Grove, Minn.), and then injecting it into 1 liter of Belzer Perfusion solution while the perfusion solution was circulating through a Waters Instruments (Rochester, Minn.) kidney perfusion circuit (final concentration: 30 milligrams/liters; 90 micromolar). Solution B was prepared by weighing out 187 milligrams of L-NIL dihydrate hydrochloride powder and adding it to 3.5 milliliters of Belzer Machine Perfusion solution, and then injecting it into Solution A while the solution was circulating through a Waters Instruments kidney perfusion circuit (final concentration: 187 milligrams/liter; 694 micromolar).
Porcine kidneys were obtained following a warm ischemic time of 30-45 minutes. The kidneys were flushed with 1 L of Lactated Ringer's solution at 5 degrees C., and then flushed with 1 L Viaspan™ solution (DuPont, Wilmington, Del.) at 5 degrees C. The kidneys were then stored at 5 degrees C. for 3-30 h, at which time the kidneys were placed on a Waters Instruments (Rochester, Minn.) kidney perfusion circuit and perfused with 1 L of Belzer Machine Perfusion solution (Transmed, Elk Grove, Minn.). During the perfusion period, the kidneys were kept at a constant pressure of 40 mmHg. Eight kidneys were perfused with Belzer Machine Perfusion solution only, another eight kidneys were perfused with Belzer Machine Perfusion solution containing solution A (prepared as in Example 1), and a further eight kidneys were perfused with Belzer Machine Perfusion solution containing Solution B (prepared as in Example 1).
Hourly samples (3 ml total) were taken from each kidney for at least 5 hours, and in some cases 6 hours. Blood chemistry was analyzed using a GEMStat analyzer (Instruments Laboratory, Boston, Mass.). Statistical analyses were performed using Sigmastat software (SPSS, Chicago, Ill.).

[1] = system: porcine coronary arteries; conditions: porcine model of balloon angioplasty and subsequent endovascular radiation; cited from earlier work
[2] = statistically significant effect relative to control perfusion solution, 5-6 h

In the case of `N[C@@H](CCC(=O)N[C@@H](CSN=O)C(=O)NCC(=O)O)C(=O)O` [GSNO, S-nitrosoglutathione], the “Vascular Resistance” value (Porcine kidneys; statistically significant effect relative to control (Belzer Machine Perfusion solution only), constant pressure 40 mmHg, hourly samples 5-6 h) is reported as “Lower”, the “Base Excess” value (Porcine kidneys; [2]) is reported as “More” and the “Ca2+” value (Porcine kidneys; [2]) is reported as “Higher”. For the same compound, the Hematocrit (Porcine kidneys; [2]) was “Lower”, the “Oxygen Saturation” value (Porcine kidneys; [2]) was “Equal” and the Flow (Porcine kidneys; statistically significant effect relative to control perfusion solution, 40 mmHg, 5-6 h) was “Higher”. For the same compound, the thrombosis [1] was “suppress thrombosis”.
